In experiment [1] the test system is hypertensive rats. The settings on record: Wu et al., 2001, Yeh et al., 2010; cited from earlier work.
For experiment [2], the system named is MMP-9. In words: MMP-9 protein expression in TGF-β-stimulated human cardiac fibroblasts (HCFs). The format is cell-based. As for the experimental part:
(§1) Human cardiac fibroblasts (HCFs; catalogue number: 306-05f) are purchased from Cell Applications Inc. (San Diego, Calif., USA). The cells are cultured as monolayer in Dulbecco's modified Eagle's medium containing 10% fetal bovine serum at 37° C. in 95% humidity and 5% CO2. Cells are harvested at passage 3-6 for experiment. Before treatment, HCFs are washed twice with serum-free medium and switched to serum-free medium for 24 h. To stimulate MMP-9 expression, the cultures are treated with 10 ng·mL^−1 transforming growth factor-b (TGF-β) for 24 h. HCFs are pretreated with KMUP-3 (10 mmol·L^−1) or in combination with L-NAME (100 mmol·L^−1) for 1 h before addition of 10 ng·mL^−1 TGF-β for 24 h. Each experiment is repeated three times.
(§2) The hearts are sonicated in 50 mmol·L^−1 Tris for 10 s two times and centrifuged at 13,000 rpm at 4° C. for 30 min. The protein concentration of the supernatants is determined by using bovine serum albumin as the standard. The cell extracts are boiled in ratio of 4:1 with sample buffer (100 mmol·L^−1 Tris, pH 6.8, 20% glycerol, 4% SDS, and 0.2% bromophenol blue). Electrophoresis is performed using 10% SDS-polyacrylamide gel electrophoresis and transferred to nitrocellulose membranes (Millipore Corporation, Billerica, Mass., USA). […] The intensity of the bands is quantified by densitometry.

Experiment [3] deals with endothelial nitric oxide synthase (eNOS). The settings on record: Wu et al., 2005; Lin et al., 2006; cited from earlier work.
Experiment [4] deals with aortic smooth muscle. The following applies: through opening a KATP channel and increasing eNOS; attenuated by glibenclamide; Wu et al., 2005; Lin et al., 2006; cited from earlier work.
For experiment [5], the system named is MI rats. In words: Cardiac structure and haemodynamics in rats after myocardial infarction (LAD ligation), LV catheter. In kind it is in vivo, rat. The source says: Male rats (250-300 g) are provided by the National Laboratory Animal Breeding and Research Center (Taipei, Taiwan) and housed under constant temperature and controlled illumination. Food and water are available ad libitum. MI is induced by ligation of the left anterior descending (LAD) coronary artery according to Liang et al., 2006. […] The LAD is ligated with 6.0 silk at 2 mm from the origin, and the wound is closed with primary suture. After the operation, the animals are observed until fully conscious. Sham animals undergo similar thoracotomy and pericardiotomy, except that the ligature around the coronary artery is not tied. All the animals are administered with s.c. doses of analgesia (ketoprofen; 3 mg·kg^−1) and antibiotics (gentamicin; 0.7 mg·kg^−1) for 2 days. This study was approved by the Animal Care and Use Committee at Kaohsiung Medical University. Surviving rats are fitted with ALZET osmotic minipumps (Model 2ML4, DURECT Corporation, Cupertino, Calif., USA) immediately after recovery. At this time, most of the rats are still anaesthetized from the previously administered pentobarbital sodium; a further bolus dose of pentobarbital sodium (15 mg·kg^−1) is given if necessary. […] In the treatment group, the minimumps are filled with hydrochloride of KMUP-3 (KMUP-3·HCl; 0.3 mg·kg^−1·day^−1). In the sham and MI groups, the minipumps are filled with saline. After echocardiography, a PE-50 catheter is inserted through the right carotid artery to measure the LV systolic pressure (LVSP), LV end-diastolic pressure (LVEDP) and maximum rates of pressure development (LV+dP/dt) and relaxation (LV−dP/dt). […] The hearts are then excised and the atria and right ventricles are dissected out. Sections of the LV are embedded in mounting medium and the remaining tissues are transferred in the liquid nitrogen for further evaluation. Throughout the whole procedure, a further bolus dose of pentobarbital sodium (15 mg·kg^−1) is given if required.

Experiment [6] deals with MI rats. In words: Area of risk (Evans blue) and infarct size (TTC staining) in MI rats. In kind it is in vivo, rat. From the text:
(§3) MI is induced by ligation of the left anterior descending (LAD) coronary artery according to Liang et al., 2006. […] The LAD is ligated with 6.0 silk at 2 mm from the origin, and the wound is closed with primary suture. After the operation, the animals are observed until fully conscious. Sham animals undergo similar thoracotomy and pericardiotomy, except that the ligature around the coronary artery is not tied. Surviving rats are fitted with ALZET osmotic minipumps (Model 2ML4, DURECT Corporation, Cupertino, Calif., USA) immediately after recovery. At this time, most of the rats are still anaesthetized from the previously administered pentobarbital sodium; a further bolus dose of pentobarbital sodium (15 mg·kg^-1) is given if necessary. […] In the treatment group, the minimumps are filled with hydrochloride of KMUP-3 (KMUP-3·HCl; 0.3 mg·kg^-1·day^-1). In the sham and MI groups, the minipumps are filled with saline. Histological analyses are performed to all of the heart. Rats are randomly chosen to be analyzed for area of risk after coronary artery ligature by Evan blue staining as described by Harada et al. (2005). […] Ten sections in each heart are analyzed for the percentage of fibrosis. […] The total LV and infarct area and fibrosis region are measured by an investigator without knowledge of the treatment group using US NIH ImageJ, 1.42q.

The subject of experiment [7] is phosphodiesterase. The settings on record: Wu et al., 2005; Lin et al., 2006; cited from earlier work.
Experiment [8] concerns MMP-9. Kind of experiment: Western blot of MMP-9 protein expression in rat hearts. The format is in vivo. The following applies: Western blot densitometry, n=9-10, FIG. 5a. For orientation: Immunoblotting shows a protein as a band on a membrane.
Experiment [9] deals with MI rats. Kind of experiment: Cardiac fibrosis by Masson's trichrome staining in MI rats. The format is in vivo, rat.
Source text: as §3

For experiment [10], the system named is MI rats. In words: Echocardiography 4 weeks post-surgery in MI rats (LVEDD, LVESD, fractional shortening). The settings on record: KMUP-3 for 4 weeks, FIG. 2. In kind it is in vivo, rat. The source says:
MI is induced by ligation of the left anterior descending (LAD) coronary artery according to Liang et al., 2006. […] The LAD is ligated with 6.0 silk at 2 mm from the origin, and the wound is closed with primary suture. After the operation, the animals are observed until fully conscious. Sham animals undergo similar thoracotomy and pericardiotomy, except that the ligature around the coronary artery is not tied. Surviving rats are fitted with ALZET osmotic minipumps (Model 2ML4, DURECT Corporation, Cupertino, Calif., USA) immediately after recovery. At this time, most of the rats are still anaesthetized from the previously administered pentobarbital sodium; a further bolus dose of pentobarbital sodium (15 mg·kg^−1) is given if necessary. […] In the treatment group, the minimumps are filled with hydrochloride of KMUP-3 (KMUP-3·HCl; 0.3 mg·kg^−1·day^−1). In the sham and MI groups, the minipumps are filled with saline.

Experiment [11] has as its system TIMP-1. In words: Western blot of TIMP-1 protein expression in rat hearts. In kind it is in vivo. The settings on record: Western blot densitometry, n=9-10, FIG. 5b.
Experiment [12] deals with TIMP-1. Kind of experiment: TIMP-1 protein expression in TGF-β-stimulated human cardiac fibroblasts (HCFs). The settings on record: KMUP-3 10 mmol·L−1, TGF-β 10 ng·mL−1, FIG. 6b. In kind it is cell-based. The method, then: as §1, §2
The subject of experiment [13] is eNOS. In words: Western blot of eNOS protein expression in rat hearts. The following applies: Western blot densitometry, versus MI group, FIG. 5c. In kind it is in vivo.
Where [14] appears, read: KMUP-3·HCl 0.3 mg·kg−1·day−1 by osmotic minipump, 4 weeks, n=10.

Data on three compounds can be found in patent publication US20120095013A1, “USE OF KMUP-3 FOR MYOCARDIAL INFARCTION” (KAOHSIUNG MEDICAL UNIVERSITY, priority 2010, published 2012).

Consider `Cn1c(=O)c2c(ncn2CCN2CCN(c3ccccc3Cl)CC2)n(C)c1=O` [KMUP-1, 7-[2-[4-(2-chlorobenzene)piperazinyl]ethyl]-1,3-dimethylxanthine], for which, in [1], the “Cardioprotection, cardiac hypertrophy and fibrosis, in words” value was “therapeutic effect on the cardioprotection in hypertensive rats, the reducing of the cardiac hypertrophy and fibrosis”.
With `Cn1c(=O)c2c(ncn2CCN2CCN(c3ccc([N+](=O)[O-])cc3)CC2)n(C)c1=O` [KMUP-3, 7-[2-[4-(4-nitrobenzene)-piperazinyl]ethyl]-1,3-dimethylxanthine], the “MMP-9 expression in HCFs” value in experiment [2] (KMUP-3 10 mmol·L−1, 1 h before TGF-β 10 ng·mL−1 for 24 h, FIG. 6a) is reported as “attenuates the expression of MMP-9”. In addition, the “eNOS in HUVECs, in words” value in experiment [3] was “enhance endothelial nitric oxide synthase (eNOS)”. Besides, the “Aortic smooth muscle relaxation, in words” value in [4] was “may induce aortic smooth muscle relaxation”. Further, in [5] (0.3 mg·kg−1·day−1 for 4 weeks), the “Cardiac systolic function (LV+dP/dt), in words” value is on record as “improved cardiac systolic function”. The “Cardiac remodelling (hypertrophy, heart weight to body weight ratio), in words” value in [5] (KMUP-3 treatment 4 weeks) is reported as “prevents the cardiac remodelling process”. In [5] (setting [14]), the “HR (heart rate)” value amounted to 421 ± 5 bpm, the “HW (heart weight)” value is 1219 ± 39 mg, the HW/BW came out at 2.72 ± 0.04 mg/g and the “LV +dP/dt” value was 7637 ± 333 mmHg/s. In addition, in experiment [5] (setting [14]), the “LV −dP/dt” value is recorded as −5379 ± 441 mmHg/s, the LVEDP is 12.6 ± 2.3 mmHg and the LVSP is 140.6 ± 4.2 mmHg. The “Heart rate change, in words” value in [5] (after KMUP-3 treatment, not statistically significant) was “small increase in heart rate”. Further, the “Area of risk after coronary artery ligature” value in experiment [6] (Evans blue staining, n=5, FIG. 3a) is recorded as “no difference between treatment groups”. Further, the “Infarction size (infarct area of LV)” value in experiment [6] (TTC staining, MI rats after KMUP-3 treatment, n=10, MI group 47.4±3.7%, P<0.05) came to 33.6±1.7%. Moreover, the “Phosphodiesterase inhibitor potency, in words” value in experiment [7] is “more potent than KMUP-1”. For the same compound, the “MMP-9 expression in MI rat hearts” value in [8] is on record as “decreases MMP-9 expression”. The “Cardiac fibrosis in central-infarct and peri-infarct areas” value in [9] (n=10, FIG. 4a-b) was “attenuates cardiac fibrosis”. The “Percentage of fibrosis in non-infarcted area” value in [9] (n=10, FIG. 4c) is recorded as “comparable with that of the sham-operated hearts”. In addition, the “Cardiac remodeling and dysfunction by echocardiography (LVEDD, LVESD, FS), in words” value in [10] is “cardiac remodeling and dysfunction may be prevented”. Moreover, the “TIMP-1 expression in MI rat hearts” value in [11] is “increases significantly”. The “TIMP-1 expression in HCFs” value in experiment [12] is “significantly enhanced”. Moreover, the “eNOS expression in MI rat hearts” value in [13] is “increases significantly”.
As for `COC(=O)[C@@H](N)CCCNC(=N)N[N+](=O)[O-]` [L-NAME, N^ω-nitro-L-arginine methyl ester, reference compound], the “Effect of eNOS inhibitor pretreatment on KMUP-3 inhibition of MMP-9 expression in HCFs” value in [2] (L-NAME 100 mmol·L−1 with KMUP-3 10 mmol·L−1, TGF-β 10 ng·mL−1, FIG. 6a) was “reverses the inhibition of MMP-9 expression”.
